Data published in patent US7829584B2, “Pyridines and pyridine N-oxides as modulators of thrombin” (Janssen Pharmaceutica NV, priority 2006, dated 2010).

Biological target: T1, Human α-thrombin (Homo sapiens, UniProt P00734)
T1 construct: Human α-thrombin (Enzyme Research Laboratories HT1002a); purchased Enzyme Research Laboratories (South Bend, Ind.) HT1002a
Experiment: In vitro inhibition of purified enzyme, kinetic analysis by chromogenic substrates (Thrombin assay)
Assay type: biochemical
Details: substrate SucAAPR pNA 100 uM, 37° C., pH 7.5, 405 nm, thrombin 1.1 nM
Description: In Vitro Inhibition of Purified Enzyme
Reagents: All buffer salts were obtained from Sigma Chemical Company (St. Louis, Mo.), and were of the highest purity available.
Human α-thrombin, was obtained from Enzyme Research Laboratories (South Bend, Ind.).
Kinetic Analysis by Chromogenic Substrates
Compounds were assessed for their inhibitory activity toward Thrombin by kinetic analysis using para-nitroaniline chromogenic substrates monitored at 405 nm. The assay buffer employed was 50 mM HEPES, pH 7.5, 200 mM NaCl, and fresh 0.05% n-octyl β-d-glucopyranoside. DMSO was present at a final concentration of 4%, derived from the substrate and inhibitory compound stock solutions. […] Reactions were initiated by addition of 10 μL protease, and increase in absorbance due to proteolytic cleavage of substrate was kinetically monitored at 37° C., 405 nm with a Molecular Devices Spectramax 340 plate reader. Initial velocities were determined by analysis of the initial linear portion of the reactions. Plots of vo/vi vs. inhibitor concentration, where vo=velocity without inhibitor, and vi=inhibited velocity, were fit to a linear regression line, and IC50 was determined from the reciprocal of the slope. Ki was calculated from IC50 using the Ki factor specific for the assay as: Ki=IC50×Ki factor, or Ki=IC50×(1/(1+[S]/Km)), where S is the substrate concentration in the assay, and Km is the Michaelis constant for the substrate (Cheng Y and Prusoff W H (1973) Biochem Pharmacol 22: 3099-3108).
The Thrombin assay incorporated substrate SucAAPR pNA (Bachem L-1720, [S]=100 uM final, Km=320 μM, Ki factor=0.76). Substrate in DMSO (10.7 mM) was diluted in assay buffer 100-fold for 100 μM final. Human α-thrombin (Enzyme Research Laboratories HT1002a) was diluted 1500-fold in assay buffer for a final assay concentration of 1.1 nM.

IC50	SMILES
~0.54 nM	N=C(N)NOCCNC(=O)Cc1c(Cl)ccc(NCC(F)(F)c2ccccc2)[n+]1[O-] [Cpd 2, 3-chloro-6-(2,2-difluoro-2-phenyl-ethylamino)-2-{2-[(aminoiminomethyl)aminooxy]ethyl}aminocarbonylmethyl-pyridine 1-oxide]
~280 nM	N#Cc1ccc(NCC(F)(F)c2ccccn2)[n+]([O-])c1CC(=O)NCc1ccc2onc(N)c2c1 [Cpd 3, 3-cyano-6-(2,2-difluoro-2-pyridin-2-yl-ethylamino)-2-(3-Amino-benzo[d]isoxazol-5-ylmethyl)aminocarbonylmethyl-pyridine 1-oxide]
~6.1 nM	N#Cc1ccc(NCC(F)(F)c2ccccn2)[n+]([O-])c1CC(=O)NCc1ccc2c(N)noc2c1 [Cpd 4, 3-cyano-6-(2,2-difluoro-2-pyridin-2-yl-ethylamino)-2-(3-amino-benzo[d]isoxazol-6-ylmethyl)aminocarbonylmethyl-pyridine 1-oxide]
~0.44 nM	N#Cc1ccc(NCC(F)(F)c2ccccn2)[n+]([O-])c1CC(=O)NCc1c(F)cccc1-n1cncn1 [Cpd 7, 3-cyano-6-(2,2-difluoro-2-pyridin-2-yl-ethylamino)-2-(2-[1,2,4]triazol-1-yl-6-fluoro-phenylmethyl)aminocarbonylmethyl-pyridine 1-oxide]
~170 nM	N#Cc1ccc(NCC(F)(F)c2ccccn2)[n+]([O-])c1CC(=O)NCc1cccnc1-n1cncn1 [Cpd 10, 3-cyano-6-(2,2-difluoro-2-pyridin-2-yl-ethylamino)-2-(2-[1,2,4]triazol-1-yl-pyridin-3-ylmethyl)aminocarbonylmethyl-pyridine 1-oxide]
~66 nM	N#Cc1ccc(NCC(F)(F)c2ccccn2)[n+]([O-])c1CC(=O)NCc1cncc(Cl)c1 [Cpd 12, 3-cyano-6-(2,2-difluoro-2-pyridin-2-yl-ethylamino)-2-(5-chloro-pyridin-3-ylmethyl)aminocarbonylmethyl-pyridine 1-oxide]

Continued, compound first:

SMILES	IC50
N#Cc1ccc(NCC(F)(F)c2ccccc2)[n+]([O-])c1CC(=O)NCCONC(=N)N [Cpd 1, 3-cyano-6-(2,2-difluoro-2-phenyl-ethylamino)-2-{2-[(aminoiminomethyl)aminooxy]ethyl}aminocarbonylmethyl-pyridine 1-oxide]	~0.13 nM
N#Cc1ccc(NCC(F)(F)c2ccccn2)[n+]([O-])c1CC(=O)NCc1ccc2ccnc(N)c2c1 [Cpd 5, 3-cyano-6-(2,2-difluoro-2-pyridin-2-yl-ethylamino)-2-(1-Amino-isoquinolin-7-ylmethyl)aminocarbonylmethyl-pyridine 1-oxide]	~42 nM
N#Cc1ccc(NCC(F)(F)c2ccccn2)[n+]([O-])c1CC(=O)NCc1cnccc1-n1cncn1 [Cpd 6, 3-cyano-6-(2,2-difluoro-2-pyridin-2-yl-ethylamino)-2-(4-[1,2,4]triazol-1-yl-pyridin-3-ylmethyl)aminocarbonylmethyl-pyridine 1-oxide]	~3.3 nM
N#Cc1ccc(NCC(F)(F)c2ccc(F)cc2)[n+]([O-])c1CC(=O)NCc1cnccc1-n1cncn1 [Cpd 8, 3-cyano-6-(2,2-difluoro-2-(4-fluoro-phenyl)-ethylamino)-2-(4-[1,2,4]triazol-1-yl-pyridin-3-ylmethyl)aminocarbonylmethyl-pyridine 1-oxide]	~3.4 nM
N#Cc1ccc(NCC(F)(F)c2ncccn2)[n+]([O-])c1CC(=O)NCc1cnccc1-n1cncn1 [Cpd 9, 3-cyano-6-(2,2-difluoro-2-pyrimidin-2-yl-ethylamino)-2-(4-[1,2,4]triazol-1-yl-pyridin-3-ylmethyl)aminocarbonylmethyl-pyridine 1-oxide]	~200 nM
N=C(N)NOCCNC(=O)Cc1nc(NCC(F)(F)c2ccccc2)ccc1Cl [Cpd 11, N-{2-[(aminoiminomethyl)aminooxy]ethyl}-2-[3-chloro-6-(2,2-difluoro-2-phenyl-ethylamino)-pyridin-2-yl]-acetamide]	~370 nM
